# Measured values reported in ChEMBL document CHEMBL1240454, “1,3-Dioxolane-based ligands incorporating a lactam or imide moiety: structure-affinity/activity relationship at alpha1-adrenoceptor subtypes and at 5-HT1A receptors” (Eur J Med Chem, 2010).
# How the values were obtained:
# [1] = molecular target: T1, 5-hydroxytryptamine receptor 1A (Homo sapiens) (UniProt P08908); assay: Agonist activity at human cloned 5HT1A receptor expressed in human HeLa cells assessed as stimulation of [35S]GTPgammaS binding after 20 mins by liquid scintillation counting; assay type: functional, cell-based
# T1 sequence (whole entry): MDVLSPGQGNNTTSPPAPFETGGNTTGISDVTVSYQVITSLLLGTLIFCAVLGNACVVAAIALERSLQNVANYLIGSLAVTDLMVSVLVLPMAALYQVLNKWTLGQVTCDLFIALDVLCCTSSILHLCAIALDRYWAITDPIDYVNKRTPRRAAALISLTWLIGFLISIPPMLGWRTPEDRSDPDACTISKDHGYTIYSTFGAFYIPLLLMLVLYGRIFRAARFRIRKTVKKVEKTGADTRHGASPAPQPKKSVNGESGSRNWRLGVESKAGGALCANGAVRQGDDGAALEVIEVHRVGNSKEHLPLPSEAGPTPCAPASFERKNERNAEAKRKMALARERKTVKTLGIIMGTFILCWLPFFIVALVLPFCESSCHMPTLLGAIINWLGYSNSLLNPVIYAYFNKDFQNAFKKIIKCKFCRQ
# [2] = molecular target: T2, Alpha-1B adrenergic receptor (Rattus norvegicus) (UniProt P15823); assay: Antagonist activity at adrenergic Alpha-1B receptor in Wistar rat spleen assessed as inhibition of […]-induced tissue contraction treated 30 mins before […] challenge; assay type: functional, tissue-based
# T2 sequence (whole entry): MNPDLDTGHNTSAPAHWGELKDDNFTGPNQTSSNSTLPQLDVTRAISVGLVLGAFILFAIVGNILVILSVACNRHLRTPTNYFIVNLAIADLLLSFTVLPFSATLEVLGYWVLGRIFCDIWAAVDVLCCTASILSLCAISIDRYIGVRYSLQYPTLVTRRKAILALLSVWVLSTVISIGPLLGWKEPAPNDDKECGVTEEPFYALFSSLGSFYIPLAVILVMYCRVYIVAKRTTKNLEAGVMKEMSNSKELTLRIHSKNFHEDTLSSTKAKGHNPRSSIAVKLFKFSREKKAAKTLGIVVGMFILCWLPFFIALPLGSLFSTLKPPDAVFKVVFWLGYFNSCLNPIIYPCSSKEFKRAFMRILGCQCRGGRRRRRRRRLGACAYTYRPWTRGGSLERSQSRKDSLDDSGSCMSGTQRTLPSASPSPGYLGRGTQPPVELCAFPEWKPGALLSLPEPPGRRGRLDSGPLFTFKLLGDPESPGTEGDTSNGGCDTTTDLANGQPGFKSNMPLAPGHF
# [3] = molecular target: T1, 5-hydroxytryptamine receptor 1A (Homo sapiens); assay: Agonist activity at human cloned 5HT1A receptor expressed in human HeLa cells assessed as stimulation of [35S]GTPgammaS binding after 20 mins by liquid scintillation counting relative to maximal 5HT response; assay type: functional, cell-based
SMILES,pD2 [1],pKb [2],Emax [3] [%]
COc1ccccc1N1CCN(CCN2C(=O)CC3(CCCC3)CC2=O)CC1,7.83,7.48,100
CCCN(CCC)C1CCc2cccc(O)c2C1 (stereo not given),9.27,,26
